In patent US20040082551A1, “Novel pyrazoles and their use as p38 kinase inhibitors” (priority 2002, published 2004):
Several values for one entry are separate records, joined by “and”; a condition that tells them apart may be missing. Equal entries are not always repeated. Structures can show the parent of a compound that is named as a salt.

target: T1, human p38 kinase alpha (Homo sapiens, UniProt Q16539); assay: In vitro p38 kinase inhibition analysis (PHAS-I 32P-ATP or EGFRP 33P-ATP format); assay type: biochemical; settings: Table 1; compounds of Examples 1-28; one of two in vitro assay methods; Hydrochloride Hydrate; read-out: p38α Kinase Inhibition (IC50 in μM)
T1 construct: The coding region of the human p38α cDNA was obtained by PCR-amplification from RNA isolated from the human monocyte cell line THP.1; made in house; host or cells: E. coli DH10B
T1 sequence (Q16539 whole entry): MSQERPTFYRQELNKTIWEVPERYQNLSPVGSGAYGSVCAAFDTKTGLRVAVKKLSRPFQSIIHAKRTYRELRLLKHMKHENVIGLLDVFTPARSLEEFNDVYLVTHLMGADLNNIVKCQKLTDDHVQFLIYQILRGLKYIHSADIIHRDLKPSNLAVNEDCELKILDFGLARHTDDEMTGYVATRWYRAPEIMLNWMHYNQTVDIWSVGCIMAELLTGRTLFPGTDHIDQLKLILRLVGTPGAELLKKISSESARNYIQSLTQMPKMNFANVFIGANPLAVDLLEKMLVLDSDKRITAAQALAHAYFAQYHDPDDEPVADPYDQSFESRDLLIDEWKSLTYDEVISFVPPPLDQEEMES
Procedure: The ability of compounds to inhibit human p38 kinase alpha was evaluated using one of two in vitro assay methods. In the first method, activated human p38 kinase alpha phosphorylates a biotinylated substrate, PHAS-I (phosphorylated heat and acid stable protein-insulin inducible), in the presence of gamma ^32P-ATP (^32P-ATP). PHAS-I was biotinylated before the assay, and provided a means of capturing the substrate which was phosphorylated during the assay. p38 Kinase was activated by MKK6. Compounds were tested in 10 fold serial dilutions over the range of 100 μM to 0.001 μM using 1% DMSO. Each concentration of inhibitor was tested in triplicate.
All reactions were carried out in 96 well polypropylene plates. Each reaction well contained 25 mM HEPES pH 7.5, 10 mM magnesium acetate, and 50 μM unlabeled ATP. […] Activated human p38 kinase alpha was used at 1 μg per 50 μl reaction volume, representing a final concentration of 0.3 μM. Gamma ^32P-ATP was used to follow the phosphorylation of PHAS-I. ^32P-ATP has a specific activity of 3000 Ci/mmol, and was used at 1.2 μCi per 50 μl reaction volume. The reaction proceeded either for one hr or overnight at 30° C.
Following incubation, 20 μl of reaction mixture was transferred to a high capacity streptavidin coated filter plate (SAM-streptavidin-matrix, Promega) prewetted with phosphate buffered saline. The transferred reaction mix was allowed to contact the streptavidin membrane of the Promega plate for 1-2 min. […] Filter plates were air dried and 20 μl of scintillant was added. The plates were sealed and counted.
A second assay format was alternatively employed. This assay is based on p38 kinase alpha being induced phosphorylation of EGFRP (epidermal growth factor receptor peptide, a 21 mer) in the presence of ^33P-ATP. Compounds were tested in 10 fold serial dilutions over the range of 100 μM to 0.001 μM in 10% DMSO. Each concentration of inhibitor was tested in triplicate. Compounds were evaluated in 50 μl reaction volumes in the presence of 25 mM HEPES pH 7.5, 10 mM magnesium acetate, 4% glycerol, 0.4% bovine serum albumin, 0.4 mM DTT, 50 μM unlabeled ATP, 25 μg EGFRP (200 μM), and 0.05 uCi gamma ^33P-ATP. Reactions were initiated by addition of 0.09 μg of activated, purified human GST-p38 kinase alpha. Activation was carried out using GST-MKK6 (5:1,p38:MKK6) for one hr at 30° C. in the presence of 50 μM ATP. Following incubation for 60 min at room temperature, the reaction was stopped by addition of 150 μl of AG 1×8 resin in 900 mM sodium formate buffer, pH 3.0 (1 volume resin to 2 volumes buffer). The mixture was mixed three times with pipetting. Afterward, the resin was allowed to settle. A total of 50 μl of clarified solution head volume was transferred from the reaction wells to Microlite-2 plates. 150 μl of Microscint 40 was then added to each well of the Microlite plate, and the plate was sealed, mixed, and counted.

IC50 | Structure (SMILES)
0.0354 µM | OC[C@H]1CCCN1[C@H]1CC[C@H](c2[nH]nc(-c3ccc(Cl)cc3)c2-c2ccncn2)CC1 [Example 10, ((2R)-1-{4-[3-(4-chlorophenyl)-4-pyrimidin-4-yl-1H-pyrazol-5yl]cyclohexyl}pyrrolidin-2-yl)methanol Hydrochloride Hydrate]
0.0582 µM | Clc1ccc(-c2n[nH]c([C@H]3CC[C@H](N4CCCCC4)CC3)c2-c2ccncn2)cc1 [Example 8, 4-[3-(4-chlorophenyl)-5-(4-piperidin-1-ylcyclohexyl)-1H-pyrazol-4-yl]pyrimidine Hydrochloride Hydrate]

same assay, conditions: Table 1; compounds of Examples 1-28; one of two in vitro assay methods; Phosphate Dihydrate; read-out: p38α Kinase Inhibition (IC50 in μM)

Structure (SMILES) | IC50
O=C(COP(=O)(O)O)N1CCC(c2[nH]nc(-c3ccc(Cl)cc3)c2-c2ccncn2)CC1 [Example 24, di-sodium 2-{4-[3-(4-chlorophenyl)-4-pyrimidin-4-yl-1H-pyrazol-5-yl]piperidin-1-yl}-2-oxoethyl Dihydrogen Phosphate Dihydrate] | 0.0608 µM
O=C(COP(=O)(O)O)N1CCC(c2[nH]nc(-c3ccc(Cl)cc3)c2-c2ccncn2)CC1 [Example 23, mono-sodium 2-{4-[3-(4-chlorophenyl)-4-pyrimidin-4-yl-1H-pyrazol-5-yl]piperidin-1-yl}-2-oxoethyl Dihydrogen Phosphate Dihydrate] | 0.0681 µM

same assay, conditions: Table 1; compounds of Examples 1-28; one of two in vitro assay methods; Trifluoroacetate Hydrate; read-out: p38α Kinase Inhibition (IC50 in μM)

IC50 | Structure (SMILES)
0.0271 µM | CN(CCO)[C@H]1CC[C@H](c2[nH]nc(-c3ccc(Cl)cc3)c2-c2ccncn2)CC1 [Example 11, 2-[{4-[3-(4-chlorophenyl)-4-pyrimidin-4-yl-1 H-pyrazol-5-yl]cyclohexyl)(methyl)amino]ethanol Trifluoroacetate Hydrate]

same assay, conditions: Table 1; compounds of Examples 1-28; one of two in vitro assay methods; read-out: p38α Kinase Inhibition (IC50 in μM)

Structure (SMILES) | IC50
O=C(CO)N1CCC(c2[nH]nc(-c3ccc(Cl)cc3F)c2-c2ccncn2)CC1 [Example 27, 2-{4-[3-(4-chloro-2-fluorophenyl)-4-pyrimidin-4-yl-1H-pyrazol-5-yl]piperidin-1-yl}-2-oxoethanol] | 0.209 µM
C[C@@H](N[C@H]1CC[C@H](c2[nH]nc(-c3ccc(Cl)cc3)c2-c2ccncn2)CC1)c1ccccc1 [Example 1, 4-[3-(4-chlorophenyl)-4-pyrimidin-4-yl-1H-pyrazol-5-yl]-N-[(1R)-1-phenylethyl]-trans-cyclohexanamine] | 0.0314 µM
Clc1ccc(-c2n[nH]c([C@H]3CC[C@H](NC4CCCCC4)CC3)c2-c2ccncn2)cc1 [Example 4] | 0.0379 µM
Fc1cc(Cl)ccc1-c1n[nH]c(C2CCNCC2)c1-c1ccncn1 [Example 26, 4-[3-(4-chloro-2-fluorophenyl)-5-piperidin-4-yl-1H-pyrazol-4-yl]pyrimidine] | 0.0641 µM
CC(C)(O)[C@H]1CC[C@H](c2[nH]nc(-c3ccc(Cl)cc3)c2-c2ccncn2)CC1 [Example 16, 2-{4-[3-(4-chlorophenyl)-4-pyrimidin-4-yl-1H-pyrazol-5-yl]cyclohexyl)propan-2-ol] | 0.0926 µM
CC(C)N[C@H]1CC[C@H](c2[nH]nc(-c3ccc(F)c(C(F)(F)F)c3)c2-c2ccncn2)CC1 [Example 14, 4-{3-[4-fluoro-3-(trifluoromethyl)phenyl]-4-pyrimidin-4-yl-1H-pyrazol-5-yl}-N-isopropylcyclohexanamine] | 0.0723 µM

same assay, conditions: Table 2; additional pyrazole compounds, Examples 56-169; read-out: p38α Kinase Inhibition (IC50 in μM)

IC50 | Structure (SMILES)
0.0777 µM | C[C@H](O)C(=O)N1CCC(c2[nH]nc(-c3ccc(Cl)cc3F)c2-c2ccncn2)CC1 [Example 107]
1 µM | CN1CCC(c2[nH]nc(-c3ccc(Cl)cc3F)c2-c2ccnc(NC3CCCC3)n2)CC1 [Example 168]
0.0047 µM | CS(=O)(=O)N1CCC(c2[nH]nc(-c3ccc(Cl)cc3F)c2-c2ccnc(NC3CCCC3)n2)CC1 [Example 159]
1.07 µM and 0.847 µM | CN(C)CCOc1nccc(-c2c(-c3ccc(Cl)cc3F)n[nH]c2C2CCN(C(=O)CO)CC2)n1 [Example 157]
0.974 µM | Cc1c(Cl)cccc1-c1n[nH]c(C2CCN(C(=O)CO)CC2)c1-c1ccncn1 [Example 88]
0.814 µM | CN(C)CCNc1nccc(-c2c(-c3ccc(F)c(C(F)(F)F)c3)n[nH]c2C2CCN(C(=O)CO)CC2)n1 [Example 118]
9.34 µM | CN(C)CCOc1nccc(-c2c(-c3cccc(Cl)c3)n[nH]c2C2CCN(C(=O)OC(C)(C)C)CC2)n1 [Example 137]
0.162 µM | CN(C)CCOc1nccc(-c2c(-c3cccc(Cl)c3)n[nH]c2C2CCNCC2)n1 [Example 138]
0.0176 µM | O=C(CO)N1CCC(c2[nH]nc(-c3ccc(Cl)cc3F)c2-c2ccnc(NC3CCCC3)n2)CC1 [Example 154]
0.0182 µM | CN1CCC(c2[nH]nc(-c3ccc(Cl)cc3F)c2-c2ccnc(NC3CCCC3)n2)CC1 [Example 153]
0.108 µM | N#Cc1ccc(Oc2nccc(-c3c(-c4ccc(Cl)cc4)n[nH]c3C3CCN(C(=O)CO)CC3)n2)cc1 [Example 94]
3.31 µM | CC(=O)OCC(=O)N1CCC(c2[nH]nc(-c3ccc(Cl)cc3)c2-c2ccnc(S(C)(=O)=O)n2)CC1 [Example 95]
0.411 µM | C[C@@H](O)C(=O)N1CCC(c2[nH]nc(-c3cccc(Cl)c3F)c2-c2ccncn2)CC1 [Example 114]
0.0285 µM | CC(C)C(N)C(=O)OCC(=O)N1CCC(c2[nH]nc(-c3ccc(Cl)cc3)c2-c2ccncn2)CC1 (stereo not shown) [Example 57]
0.0032 µM | O=C(CO)N1CCC(c2[nH]nc(-c3ccc(F)c(C(F)(F)F)c3)c2-c2ccnc(NC3CCCC3)n2)CC1 [Example 169]
0.0438 µM | CN(C)CC(=O)OCC(=O)N1CCC(c2[nH]nc(-c3ccc(Cl)cc3)c2-c2ccncn2)CC1 [Example 130]

IC50 | Structure (SMILES)
1.31 µM | O=C(CO)N1CCC(c2[nH]nc(-c3ccc(Cl)cc3O)c2-c2ccncn2)CC1 [Example 98]
0.727 µM | CN(C)CCOc1nccc(-c2c(-c3cccc(Cl)c3)n[nH]c2C2CCN(C(=O)CO)CC2)n1 [Example 116]
16.9 µM | CC(C)(C)OC(=O)N1CCC(c2[nH]nc(-c3ccc(Cl)cc3)c2-c2ccnc(OCCN3CCOCC3)n2)CC1 [Example 136]
0.297 µM | O=C(CO)N1CCC(c2[nH]nc(-c3cccc(Cl)c3F)c2-c2ccncn2)CC1 [Example 106]
0.0063 µM | CN1CCC(c2[nH]nc(-c3ccc(F)c(C(F)(F)F)c3)c2-c2ccnc(NC3CCCC3)n2)CC1 [Example 167]
0.859 µM | CC(C)CCNc1nccc(-c2c(-c3ccc(Cl)cc3)n[nH]c2C2CCN(C(=O)CO)CC2)n1 [Example 100]
4.82 µM | O=C(CO)N1CCC(c2[nH]nc(-c3c(F)cccc3F)c2-c2ccncn2)CC1 [Example 81]
2.45 µM | O=C(CO)N1CCC(c2[nH]nc(-c3cccc(F)c3F)c2-c2ccncn2)CC1 [Example 80]
1.2 µM | COc1ccc(-c2n[nH]c(C3CCN(C(=O)CO)CC3)c2-c2ccncn2)cc1Cl [Example 73]
0.0449 µM | C[C@@H](N[C@H]1CC[C@@H](c2[nH]nc(-c3ccc(Cl)cc3)c2-c2ccncn2)CC1)c1ccccc1 [Example 122]
3.64 µM | CN(C)CCNc1nccc(-c2c(-c3ccc(Cl)cc3)n[nH]c2C2CCN(C(=O)OC(C)(C)C)CC2)n1 [Example 143]
0.256 µM | O=C([C@@H](O)CO)N1CCC(c2[nH]nc(-c3ccc(Cl)cc3)c2-c2ccncn2)CC1 [Example 65]
0.438 µM | C[C@H](O)C(=O)N1CCC(c2[nH]nc(-c3cc(C(F)(F)F)ccc3F)c2-c2ccncn2)CC1 [Example 111]
4.6 µM | COc1cc(-c2n[nH]c(C3CCN(C(=O)CO)CC3)c2-c2ccncn2)ccc1Cl [Example 72]
0.13 µM | C[C@@H](N[C@H]1CC[C@@H](c2[nH]nc(-c3ccc(Cl)cc3)c2-c2ccncn2)CC1)c1ccc(F)cc1 [Example 126]
0.0225 µM | Fc1ccc(-c2n[nH]c(C3CCNCC3)c2-c2ccnc(NC3CCCC3)n2)cc1C(F)(F)F [Example 164]
